The text below walks through data of PubChem BioAssay (NCI).

Values joined by “and” are separate entries in the source; they are usually repeats but may differ in a detail not shown here. Identical values can stand only once.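 Grown in 96-well plates, cells were treated for 48 hours with each compound at five concentrations. Insufficient inhibition: endpoint recorded as highest concentration tested. GI50 is the concentration that inhibits growth by half. TGI marks complete inhibition of growth.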

Test in all cases: NCI tumour cell line growth inhibition, 48 h
In test [1] the test system is A549 NSCLC.
Test [2] concerns EKVX NSCLC.
In test [3] the test system is HCT-15 colon.
Test [4] has as its system K-562 leukemia.
The subject of test [5] is NCI-H460 lung.
Test [6] has as its system NCI-H522 lung.
In test [7] the test system is OVCAR-3 ovarian.
Test [8] concerns OVCAR-5 ovarian.
Test [9] has as its system PC-3 prostate.
The subject of test [10] is SF-268 CNS.

Take `OCCCCC#Cc1ccccc1C#Cc1ccc(C(F)(F)F)cc1`: the GI50 is 14.3 µM in [1]; 18.4 µM in test [2]; 12.5 µM in test [3]; 18.2 µM in test [4]; 23.3 µM in test [5]; 16.4 µM in test [6]. Further, the GI50 was 17.8 µM in [7], 16.9 µM in [8], 17.5 µM in test [9] and 22 µM in test [10]. Also, the TGI in test [1] is 27.6 µM; in test [2], 35.9 µM; in test [3] it was 25.4 µM; in test [4], 43.6 µM; in test [5], 60.3 µM; in test [6], 32 µM. For the same compound, the TGI in test [7] amounted to 32.6 µM; in test [8] it was 31.8 µM; in test [9] it was 35 µM; in [10], 48 µM.
Regarding `C[C@]12CCC3=NCCN3C1=CC[C@@H]1[C@@H]2CC[C@@]2(C)[C@H]1CC[C@]2(C)O`, the TGI in test [1], in test [2], in test [3], in test [4], in test [5] and in test [6] was > 100 µM throughout. For the same compound, the TGI in test [7], in [8], in test [9] and in test [10] was > 100 µM in each case.
As to `COC(=O)[C@H](Cc1cn(C)cn1)NC(=O)[C@@H](NC(=O)Nc1cc(C(F)(F)F)cc(C(F)(F)F)c1)C(C)C`, the GI50 in test [1] was > 10 µM; in [3] it was > 10 µM; in [4], 4.74 µM; in [5], 3.53 µM; in test [6], 1.71 µM; in [7], 1.86 µM. The GI50 in [8] was > 10 µM; in test [9], 4.35 µM; in test [10], 2.02 µM. For the same compound, the TGI in [1] is > 10 µM; in test [3] it was > 10 µM; in test [4], > 10 µM; in [5] it was > 10 µM; in [6], 3.66 µM; in test [7], 3.48 µM. Moreover, the TGI in test [8] was > 10 µM; in [9] it was > 10 µM; in test [10] it was 4.87 µM.
In the case of `O=C(c1ccccc1)C(Br)C(Br)c1ccccc1` (centres undefined), the GI50 in test [1] was 18.3 µM; in test [2], 14.6 µM; in test [3] it was 2.96 µM; in [5] it was 13.8 µM; in test [6], 1.18 µM; in test [7], 1.99 µM. In addition, the figures for the GI50 in test [8], in test [9] and in test [10] were 14.5 µM, 18.3 µM and 9.37 µM, respectively. Besides, the TGI came out at 39.2 µM in [1]; 32.7 µM in [2]; 9.76 µM in [3]; 29.5 µM in [5]; 2.62 µM in test [6]; 3.65 µM in test [7]. Also, the results for the TGI in [8], in test [9] and in [10] were 27.7 µM, 33.4 µM and 24.8 µM, respectively.
As to `CCOc1ccc(Nc2nc(-c3c(C)nc4ncccn34)cs2)cc1`, the GI50 in [1] is 0.0268 µM; in test [3], 0.0467 µM; in [4], < 0.01 µM; in test [5], 0.0305 µM; in [6], < 0.01 µM; in [7] it was < 0.01 µM. For the same compound, the GI50 was 0.0362 µM in test [8], 0.0185 µM in test [9] and 1.53 µM in test [10]. Besides, the TGI in [1] is 20.5 µM; in [3], 15.4 µM; in test [4] it was > 100 µM; in test [5], 12.5 µM; in [6], 1.57 µM; in test [7], 14.6 µM. For the same compound, the TGI in [8] stood at 19 µM; in [9], 17.5 µM; in [10] it was 19.5 µM.
With `O=C(C(=O)c1cc(Br)ccc1O)c1cc(Br)ccc1O`, the GI50 in [1] is 4.16 µM; in test [2] it was 2.03 µM; in test [3] it was 4.05 µM; in [4], 2.82 µM; in test [6], 2.94 µM; in [7] it was 2.84 µM. Further, the GI50 in test [8] is 22.2 µM; in test [9], 3.13 µM; in [10], 3.41 µM. Further, the TGI in [1] is 22.3 µM; in test [2] it was 7.52 µM; in test [3], 24.1 µM; in [4], > 100 µM; in test [6], 9.3 µM; in test [7], 9.32 µM. Further, the TGI in [8] came out at 74.8 µM; in [9], 15.7 µM; in [10], 21.1 µM.
For `NC(N)=N/N=C/c1c(-c2ccc(Cl)c([N+](=O)[O-])c2)nc2sc3ccccc3n12`, the GI50 in test [1] was 1.61 µM; in test [2] it was 2.03 µM; in test [4] it was 0.209 µM; in test [6], 3.66 µM; in test [8], 0.773 µM; in test [9] it was 0.738 µM. Further, the TGI in test [1] is > 12.2 µM; in test [2] it was 7.16 µM; in [4] it was > 50 µM; in [6] it was > 50 µM; in test [8] it was 1.44 µM; in test [9], 1.4 µM.
On to `O=C(O)Cn1ccc(=O)c2cc([N+](=O)[O-])ccc21`, for which the TGI in test [1], in test [3], in [4], in test [5], in [6] and in test [7] was > 100 µM throughout. For the same compound, the TGI in test [8], in test [9] and in [10] was > 100 µM in each case.
For `COc1cc(/C=C\c2cc(OC)c(OC)c(OC)c2)cc(NS(=O)(=O)c2ccc(Cl)cc2)c1OC`, the GI50 in test [1] was 0.716 µM; in test [3], 0.399 µM; in test [4], 0.306 µM; in test [5] it was 0.364 µM; in [6] it was 0.209 µM; in test [7] it was 0.364 µM. Besides, the GI50 was 0.726 µM in test [8], 0.395 µM in test [9] and 1.1 µM in test [10]. Also, the TGI in test [1] was > 100 µM; in test [3], > 100 µM; in [4] it was 34.6 µM; in test [5], 51.4 µM; in [6], 0.87 µM; in test [7] it was > 100 µM. Moreover, the TGI in [8], in [9] and in test [10] was > 100 µM in each case.
With `Cc1nc2c(Br)cc(Br)cc2c(=O)n1-c1ccccc1NC1OCC(O)C(O)C1O` (centres undefined), the GI50 in test [1] is 34.8 µM and 10.1 µM; in test [4] it was 15.1 µM and > 32.7 µM; in [10], 45.1 µM and 5.56 µM. Besides, the TGI is > 100 µM and 34.6 µM in [1]; > 100 µM in test [2]; > 100 µM in test [3]; 46.6 µM and > 81.2 µM in [4]; 92.4 µM and 47.1 µM in test [6]; 69.3 µM and 60.9 µM in test [7]. The TGI in [8] was > 100 µM; in [9] it was > 100 µM; in [10], > 100 µM and 34 µM.
For `CC(=O)OCC1OC(n2c(=S)n(-c3ccccc3)c(=O)c3cc(Br)cc(Br)c32)C(OC(C)=O)C(OC(C)=O)C1OC(C)=O` (centres undefined), the TGI in [1] was > 100 µM; in test [2], > 100 µM; in test [3], > 100 µM; in test [4], > 100 µM; in test [5] it was > 100 µM; in test [6], > 100 µM and 84.7 µM. Moreover, the TGI in [7], in test [8] and in test [10] was > 100 µM each time. Also, the GI50 is > 100 µM and 28.6 µM in test [6]; 47.4 µM and > 100 µM in test [7]; 35.2 µM and 94.8 µM in test [10].
In the case of `N/C(=N\C(N)=N\c1nc2ccccc2s1)c1cnccn1`, the GI50 in [2] was 4.08 µM; in test [3] it was 3.12 µM; in test [4], 3.69 µM; in test [5], 3.59 µM; in [6], 2.16 µM; in [7] it was 2.79 µM. Moreover, the GI50 in test [8] is 3.68 µM; in [9], 3.78 µM; in test [10], 4.74 µM. Further, the TGI was > 100 µM in test [2]; > 100 µM in [3]; > 100 µM in [4]; > 100 µM in test [5]; 6.16 µM in test [6]; 7.86 µM in test [7]. For the same compound, the TGI in test [8], in test [9] and in test [10] was > 100 µM throughout.
On to `C=C(Cl)[C@@](Cl)(CBr)CC[C@@H](Br)C(C)(C)Cl`, for which the GI50 in [1] was 1.67 µM; in [3] it was 0.866 µM; in test [4], 1.7 µM; in [8], 2.45 µM; in test [9], 0.28 µM. The TGI in test [1] is 4.12 µM and 4.11 µM; in test [2] it was 15.1 µM and 7 µM; in test [3] it was 4.99 µM and 1.97 µM; in [4], > 100 µM and 23.5 µM; in test [6] it was 34.5 µM and 43.5 µM; in test [7], 2.87 µM and 1.35 µM. Further, the TGI in [8] is 7.39 µM and 3.22 µM; in test [9] it was 1.42 µM and 1.29 µM; in test [10] it was 3.01 µM and 0.838 µM.
Consider `COc1ccc(/C=C/C(C)=N/OCC(=O)Nc2ccc(Cl)cc2)cc1`, for which the GI50 in test [1] is 3.06 µM; in test [3], 2.14 µM; in [4] it was 2.42 µM; in test [5], 3.1 µM; in test [6] it was 1.81 µM; in test [7], 3.03 µM. Moreover, the results for the GI50 in test [8], in test [9] and in test [10] were 5.45 µM, 1.84 µM and 4.2 µM, respectively. For the same compound, the TGI is 45.6 µM in test [1]; 15.6 µM in test [3]; 17.2 µM in test [4]; 16.7 µM in test [5]; 8.01 µM in test [6]; 15 µM in test [7]. The TGI is > 77.3 µM in test [8], 13.1 µM in [9] and 49.4 µM in test [10].
Turning to `COc1cc(N(CCC#N)CCC#N)ccc1/C(N=Nc1ccc(C(=O)O)cc1)=N/NC(=O)c1cc(Br)ccc1O`, the GI50 in test [1] is 79.4 µg/mL; in test [2], 137 µg/mL; in test [3] it was 35.8 µg/mL; in [4], > 150 µg/mL; in [5] it was 40.9 µg/mL; in test [6], 110 µg/mL. In addition, the values for the GI50 in test [7], in [9] and in test [10] were 65 µg/mL, 81 µg/mL and 29.9 µg/mL, respectively. Further, the TGI is > 150 µg/mL in test [1]; > 150 µg/mL in test [2]; 95 µg/mL in test [3]; > 150 µg/mL in test [4]; > 150 µg/mL in test [5]; > 150 µg/mL in test [6]. Moreover, the TGI in [7] was > 150 µg/mL; in test [9], > 150 µg/mL; in test [10], 119 µg/mL.
Consider `OCC(O)C(O)C(O)C(O)c1nn[nH]n1` (centres undefined), for which the TGI in test [1], in test [2], in test [3], in test [4], in [5] and in [6] was > 100 µM in each case. The TGI in [7], in test [8] and in test [10] was > 100 µM throughout.
Regarding `NC(=O)c1ncn(C2OC(CO)C(O)C2O)c1N` (centres undefined), the GI50 in test [1], in test [2], in test [3], in [5], in test [6] and in test [7] was > 100 µM each time. Also, the GI50 in test [8], in test [9] and in test [10] was > 100 µM each time. Moreover, the TGI in test [1], in test [2], in test [3], in [5], in [6] and in test [7] was > 100 µM each time. In addition, the TGI in test [8], in test [9] and in [10] was > 100 µM in each case.
Turning to `O=C(Nc1ccc(C(F)(F)F)cc1[N+](=O)[O-])c1cccnc1`, the TGI in test [1] is > 100 µM; in [2], > 100 µM; in test [3], > 100 µM; in [4] it was > 100 µM; in test [5] it was 36.8 µM; in test [6] it was 36.1 µM. For the same compound, the TGI is 7.29 µM in test [7], > 100 µM in test [8] and 30.6 µM in test [10].
